Values quoted from earlier work in patent US20210319872A1, “DRUG AND DEVICE COMBINATION PRODUCTS WITH IMPROVED SAFETY AND EFFICACY PROFILES” (priority 2016, published 2021).

What was measured:
[1] = patients who had been started on the drug
[2] = older adults
subjects = details: 16 subjects after 15-mg dose, pilot and main studies, FIG. 31 B
[3] = in vivo

In the case of CC[C@H]1OC(=O)[C@H](C)[C@@H](O[C@H]2C[C@@](C)(OC)[C@@H](O)[C@H](C)O2)[C@H](C)[C@@H](O[C@@H]2O[C@H](C)C[C@H](N(C)C)[C@H]2O)[C@](C)(OC)C[C@@H](C)C(=O)[C@H](C)[C@@H](O)[C@]1(C)O [clarithromycin], the “Digoxin toxicity, times more likely” value [1] is given as 12 times.

For [Li] [lithium], the clearance rate [2] is listed as “reduced”.

In the case of COc1ccc2c3c1O[C@H]1C(=O)CC[C@@]4(O)[C@@H](C2)N(C)CC[C@]314 [oxycodone, reference compound], the “individual time course of pupil diameter” value (subjects) is listed as “does not move into “pinpoint pupils”, overdose, or mydriasis”, the Abdominal pain [3] is listed as “Gastrointestinal: Abdominal pain (up to 5%), Constipation (Adults,” and the Chest pain [3] is listed as “Cardiovascular: Cardiac arrest, Chest pain (less than 1%), Heart”. For the same compound, the Fever [3] was “Other: Fever (Adults, up to 5%; pediatrics, 11%)”, the Headache [3] was “(Adults, 3% or greater; pediatrics, 14%), Somnolence (controlled-” and the Heart failure [3] was “failure (less than 3%), Hypotension (less than 3%), Shock, ST”. The Hypersensitivity reaction [3] was “Immunologic: Hypersensitivity reaction (less than 3%)”, the Hypotension [3] was “failure (less than 3%), Hypotension (less than 3%), Shock, ST” and the Opioid withdrawal [3] was “Opioid withdrawal (1% to 5%)”. For the same compound, the ST segment depression [3] was “segment depression (less than 1%), Syncope (less than 1%)”, the “Serious side effect, Gastrointestinal” value [3] was “Gastrointestinal: Bowel obstruction, Diverticulitis, Exacerbation” and the “Serious side effect, Other” value [3] was “Other: Drug withdrawal syndrome in neonate of dependent mother,”. For the same compound, the “Serious side effect, Respiratory” value [3] was “Respiratory: Respiratory depression”, the Somnolence [3] was “release, 23%; immediate-release, 3% or greater)” and the Sweating [3] was “(controlled-release, 5%; immediate-release, less than 3%)”. For the same compound, the Syncope [3] was “segment depression (less than 1%), Syncope (less than 1%)”.

In the case of Nesiritide (Natrecor), the “Dizziness (incidence)” value [3] is given as “Neurologic: Dizziness (2%), Headache (7%)”, the “Headache (incidence)” value [3] is given as “Neurologic: Dizziness (2%), Headache (7%)” and the “Hypotension (incidence)” value [3] is given as “Cardiovascular: Hypotension (4% to 17%)”. The “Nausea (incidence)” value [3] was “Gastrointestinal: Nausea (3%)” and the “Serum creatinine raised (incidence)” value [3] was “Renal: Serum creatinine raised (17% to 31.4%)”.
